Experimental data: patent US12257216B2, “Treatment for hot flushes” (Dignity Health, priority 2017, dated 2025)
Entries after “also recorded” stand apart in the source; their conditions may differ.

How the values were obtained:
ovariectomized rats [1] = experiment: ambient warming-induced cold-seeking test in a thermogradient apparatus; type: in vivo, rat; details: vs OVX Vehicle+Vehicle
Procedure: Experiments were performed in adult female Wistar rats (Envigo) weighting 240-280 g at the day of the first surgery (Day 0). Rats were housed three per cage in standard “show boxes”. The room was maintained on a 12:12 h light-dark cycle (lights-on at 6 AM) at 24±2° C. All protocols were approved by the Institutional Animal Care and Use Committee.
On Day 0, each rat was subjected to a bilateral ovariectomy or sham surgery, either with or without simultaneous implantation of a miniature data logger into the peritoneal cavity for body temperature measurement. On Day 7, the ovariectomized rats were implanted subcutaneously with a capsule containing either estradiol or vehicle, and the sham-operated rats were implanted with a capsule containing vehicle. On Days 6-15, the rats were habituated to experimental setups and procedures. The rats were taken into experiments between Days 16 and 20 (Experiments 1-3) or on Days 13 and 20 (Experiment 4); each rat was used in two experiments. Thermal discomfort was studied in one of two tests: the ambient warming-induced cold-seeking test in a thermogradient apparatus (cold-seeking test; Experiments 1-3) or the internal warming-induced cessation of warm sucrose intake test (sucrose intake cessation test; Experiment 4). Some ovariectomized rats were treated with a TRPV1. antagonist (capsazepine, Al 165442, or SB366791) or vehicle prior to a test. After experiments (Day 21), each rat used in Experiments 1-3 was euthanized, and the uterus was removed and weighed to confirm the completeness of the ovariectomy and the effectiveness of the estradiol replacement procedure.
The goal of Experiment 1 was to determine whether ovariectomy facilitates the cold-seeking behavior after heat exposure, and whether this facilitation (if it occurs) is estradiol-dependent. […]
Cold-seeking test. […] The preferred ambient temperature was recorded for 10 min. […]

[2] = as supported by animal studies; cited from earlier work
TRPV1 = TRPV1 (Homo sapiens, UniProt Q8NER1); details: cited from earlier work
ovariectomized rats [3] = experiment: uterus mass after ovariectomy and estradiol replacement; type: in vivo, rat; details: Experiment 1; ovariectomized rats with estradiol replacement; mean±SE; Day 21
Source text: On Day 0, each rat was subjected to a bilateral ovariectomy or sham surgery, either with or without simultaneous implantation of a miniature data logger into the peritoneal cavity for body temperature measurement. On Day 7, the ovariectomized rats were implanted subcutaneously with a capsule containing either estradiol or vehicle, and the sham-operated rats were implanted with a capsule containing vehicle. On Days 6-15, the rats were habituated to experimental setups and procedures. The rats were taken into experiments between Days 16 and 20 (Experiments 1-3) or on Days 13 and 20 (Experiment 4); each rat was used in two experiments. Thermal discomfort was studied in one of two tests: the ambient warming-induced cold-seeking test in a thermogradient apparatus (cold-seeking test; Experiments 1-3) or the internal warming-induced cessation of warm sucrose intake test (sucrose intake cessation test; Experiment 4). Some ovariectomized rats were treated with a TRPV1. antagonist (capsazepine, Al 165442, or SB366791) or vehicle prior to a test. […] All data arc expressed as mean±SE. The preferred ambient temperature and sucrose intake data analyzed by a two-way repeated-measurements ANOVA, followed by the Fisher or Newman-Keuls multiple comparisons test, as appropriate. The uterus mass data were analyzed by a one-way ANOVA followed by the Fisher test. […]

ovariectomized rats [4] = experiment: internal warming-induced cessation of warm sucrose intake test (sucrose intake cessation test); type: in vivo, rat; details: Experiment 4, SB366791 10 mg/kg by oral gavage 20 min prior to heat exposure (32.5° C., 10 min), vs OVX Vehicle+Vehicle
Procedure: Experiments were performed in adult female Wistar rats (Envigo) weighting 240-280 g at the day of the first surgery (Day 0). Rats were housed three per cage in standard “show boxes”. The room was maintained on a 12:12 h light-dark cycle (lights-on at 6 AM) at 24±2° C. All protocols were approved by the Institutional Animal Care and Use Committee. On Day 0, each rat was subjected to a bilateral ovariectomy or sham surgery, either with or without simultaneous implantation of a miniature data logger into the peritoneal cavity for body temperature measurement. On Day 7, the ovariectomized rats were implanted subcutaneously with a capsule containing either estradiol or vehicle, and the sham-operated rats were implanted with a capsule containing vehicle. On Days 6-15, the rats were habituated to experimental setups and procedures. […] Each burette was fitted with a stainless steel spout and filled with a 0.3 M sucrose solution at either 27 or 40° C., and sucrose solution consumption was recorded for 15 min. […] All data arc expressed as mean±SE. The preferred ambient temperature and sucrose intake data analyzed by a two-way repeated-measurements ANOVA, followed by the Fisher or Newman-Keuls multiple comparisons test, as appropriate. The uterus mass data were analyzed by a one-way ANOVA followed by the Fisher test. […]

Sequence of TRPV1 (Q8NER1 whole entry, species assumed): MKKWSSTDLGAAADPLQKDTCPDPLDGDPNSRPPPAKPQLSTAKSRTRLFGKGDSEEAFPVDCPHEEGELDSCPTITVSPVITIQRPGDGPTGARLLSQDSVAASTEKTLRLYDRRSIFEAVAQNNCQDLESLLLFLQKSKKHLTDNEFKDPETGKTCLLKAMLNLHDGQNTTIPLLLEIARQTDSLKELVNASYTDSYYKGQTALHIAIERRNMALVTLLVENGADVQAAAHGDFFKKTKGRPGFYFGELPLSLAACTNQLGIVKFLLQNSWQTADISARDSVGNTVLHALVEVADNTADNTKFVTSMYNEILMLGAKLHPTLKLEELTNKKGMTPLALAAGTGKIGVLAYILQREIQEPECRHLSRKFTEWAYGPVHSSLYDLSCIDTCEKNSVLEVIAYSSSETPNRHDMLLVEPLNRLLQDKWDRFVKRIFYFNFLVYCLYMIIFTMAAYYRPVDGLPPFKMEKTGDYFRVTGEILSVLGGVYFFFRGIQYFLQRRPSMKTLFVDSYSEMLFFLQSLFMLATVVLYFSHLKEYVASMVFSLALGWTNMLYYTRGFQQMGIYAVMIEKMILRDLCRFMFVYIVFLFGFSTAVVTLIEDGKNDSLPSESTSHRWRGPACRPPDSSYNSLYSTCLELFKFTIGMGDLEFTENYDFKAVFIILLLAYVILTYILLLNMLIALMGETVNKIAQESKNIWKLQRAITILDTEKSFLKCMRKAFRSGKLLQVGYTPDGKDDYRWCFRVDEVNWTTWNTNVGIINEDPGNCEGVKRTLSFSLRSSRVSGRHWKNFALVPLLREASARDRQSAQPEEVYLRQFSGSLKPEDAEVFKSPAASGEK

Cc1cc2c(NC(=O)N[C@@H]3CC(CF)(CF)Oc4cc(Cl)ccc43)cccc2cn1 [A1165442]
heat exposure-induced cold-seeking behavior (preferred ambient temperature) (ovariectomized rats [1]; Experiment 3, A1165442 100 mg/kg by oral gavage prior to 10-min mild heat exposure (31° C.), 100 mg/kg): strongly attenuated; also recorded: treat this thermal discomfort; also recorded: significant difference

FC(F)(F)c1ccc(-c2cc(Nc3ccc4ncsc4c3)ncn2)c(NCC2CCCCC2)c1 [AMG7905]
effect on body temperature [2]: cause hypothermia | effect on activation of TRPV1 by protons (TRPV1): potentiate the activation of TRPV1 by protons

C[C@]12CC[C@@H]3c4ccc(O)cc4CC[C@H]3[C@@H]1CC[C@@H]2O [Estradiol, estradiol]
uterus mass (ovariectomized rats [3]): 0.42 ± 0.02 g

COc1cccc(NC(=O)/C=C/c2ccc(Cl)cc2)c1 [SB366791]
cumulative intake of warm (40° C.) sucrose solution (avoidance of internal warming) (ovariectomized rats [4]): attenuated; also recorded: treat this thermal discomfort; also recorded: significant difference

Oc1cc2c(cc1O)CN(C(=S)NCCc1ccc(Cl)cc1)CCC2 [capsazepine]
heat exposure-induced cold-seeking behavior (preferred ambient temperature) (ovariectomized rats [1]; Experiment 2, capsazepine 40 mg/kg by oral gavage 30 min prior to 10-min mild heat exposure (31° C.)): strongly attenuated; also recorded: treat this thermal discomfort | heat exposure-induced cold-seeking behavior (preferred ambient temperature) (ovariectomized rats [1]; Experiment 2, capsazepine 40 mg/kg by oral gavage 30 min prior to 10-min mild heat exposure (31° C.), listed as Capsazepine): significant difference
